ChEMBL document CHEMBL3885861, “Open TG-GATES”

Species: Rattus norvegicus
Test: Open TG-GATES - Regimen: Daily Repeat
Assay type: toxicity, organism-based, Sprague-Dawley
Design: regimen Daily Repeat, gender Male, age 6 weeks
Details: in vivo, po, 30 mg/kg, route gavage, dose level High; for APTT / Bas / Eos / Fbg / Hb / Ht / Lym / MCH / MCHC / MCV / Mono / Neu / PT / Plat / RBC / Ret / WBC: tissue Blood; for KIDNEY_L / KIDNEY_R / KIDNEY_TOTAL: tissue Kidney; for LIVER: tissue Liver; for A/G / ALP / ALT / AST / BUN / CRE / Ca / Cl / DBIL / GLC / IP / K / LDH / Na / PL / RALB / TBIL / TC / TG / TP / gamma-GTP: tissue Plasma

Nc1c2c(nc3ccccc13)CCCC2 [TACRINE]
TERMINAL_BW (72 h, time 3 day): 194.7 g | APTT (72 h, time 3 day): 21.3 s | Bas (72 h, time 3 day): 0% | Eos (72 h, time 3 day): 0.7% | Fbg (72 h, time 3 day): 361.7 mg/dL | Hb (72 h, time 3 day): 14.3 g/dL | Ht (72 h, time 3 day): 40.7% | Lym (72 h, time 3 day): 73% | MCH (72 h, time 3 day): 21 pg | MCHC (72 h, time 3 day): 35.1% | MCV (72 h, time 3 day): 59.8 fL | Mono (72 h, time 3 day): 2.7% | Neu (72 h, time 3 day): 22% | PT (72 h, time 3 day): 16.1 s | Plat (72 h, time 3 day): 120.4 x10_4/uL | RBC (72 h, time 3 day): 681.7 x10_4/ul | Ret (72 h, time 3 day): 3% | WBC (72 h, time 3 day): 79 x10_2/uL | KIDNEY_L (72 h, time 3 day): 0.9 g | KIDNEY_R (72 h, time 3 day): 0.9 g | KIDNEY_TOTAL (72 h, time 3 day): 1.9 g | LIVER (72 h, time 3 day): 8.6 g | A/G (72 h, time 3 day): 1.2 | ALP (72 h, time 3 day): 1465.3 IU/L | ALT (72 h, time 3 day): 37.3 IU/L | AST (72 h, time 3 day): 82.7 IU/L | BUN (72 h, time 3 day): 16.3 mg/dL | CRE (72 h, time 3 day): 0.2 mg/dL | Ca (72 h, time 3 day): 10.8 mg/dL | Cl (72 h, time 3 day): 107.3 meq/L | DBIL (72 h, time 3 day): 0.0067 mg/dL | GLC (72 h, time 3 day): 169 mg/dL | IP (72 h, time 3 day): 7.4 mg/dL | K (72 h, time 3 day): 4.1 meq/L | LDH (72 h, time 3 day): 229.7 IU/L | Na (72 h, time 3 day): 140.7 meq/L | PL (72 h, time 3 day): 142.7 mg/dL | RALB (72 h, time 3 day): 3.2 g/dL | TBIL (72 h, time 3 day): 0.0233 mg/dL | TC (72 h, time 3 day): 84 mg/dL | TG (72 h, time 3 day): 52 mg/dL | TP (72 h, time 3 day): 5.8 g/dL | gamma-GTP (72 h, time 3 day): 1 IU/L | TERMINAL_BW ([…], time 7 day): 217.1 g | TERMINAL_BW ([…], time 14 day): 249.3 g | TERMINAL_BW ([…], time 28 day): 315.1 g | APTT ([…], time 7 day): 22.7 s | Bas ([…], time 7 day): 0% | Eos ([…], time 7 day): 0.7% | Fbg ([…], time 7 day): 325.7 mg/dL | Hb ([…], time 7 day): 14.2 g/dL | Ht ([…], time 7 day): 40.2% | Lym ([…], time 7 day): 73% | MCH ([…], time 7 day): 21.1 pg | MCHC ([…], time 7 day): 35.3% | MCV ([…], time 7 day): 59.7 fL | Mono ([…], time 7 day): 3.3% | Neu ([…], time 7 day): 22.3% | PT ([…], time 7 day): 16.2 s | Plat ([…], time 7 day): 127.6 x10_4/uL | RBC ([…], time 7 day): 673.7 x10_4/ul | Ret ([…], time 7 day): 4.7% | WBC ([…], time 7 day): 124.6 x10_2/uL | APTT ([…], time 14 day): 23.8 s | Bas ([…], time 14 day): 0% | Eos ([…], time 14 day): 1% | Fbg ([…], time 14 day): 320 mg/dL | Hb ([…], time 14 day): 15.1 g/dL | Ht ([…], time 14 day): 41.9% | Lym ([…], time 14 day): 79.3% | MCH ([…], time 14 day): 20.4 pg | MCHC ([…], time 14 day): 36% | MCV ([…], time 14 day): 56.8 fL | Mono ([…], time 14 day): 1.7% | Neu ([…], time 14 day): 17.3% | PT ([…], time 14 day): 15.8 s | Plat ([…], time 14 day): 126 x10_4/uL | RBC ([…], time 14 day): 737.3 x10_4/ul | Ret ([…], time 14 day): 3.5% | WBC ([…], time 14 day): 110.7 x10_2/uL | APTT ([…], time 28 day): 21.4 s | Bas ([…], time 28 day): 0% | Eos ([…], time 28 day): 1% | Fbg ([…], time 28 day): 295 mg/dL | Hb ([…], time 28 day): 15 g/dL | Ht ([…], time 28 day): 41.2% | Lym ([…], time 28 day): 74% | MCH ([…], time 28 day): 20.1 pg | MCHC ([…], time 28 day): 36.4% | MCV ([…], time 28 day): 55.1 fL | Mono ([…], time 28 day): 2% | Neu ([…], time 28 day): 22% | PT ([…], time 28 day): 16.5 s | Plat ([…], time 28 day): 114.6 x10_4/uL | RBC ([…], time 28 day): 748 x10_4/ul | Ret ([…], time 28 day): 3.3% | WBC ([…], time 28 day): 119.9 x10_2/uL | KIDNEY_L ([…], time 7 day): 1 g | KIDNEY_R ([…], time 7 day): 1 g | KIDNEY_TOTAL ([…], time 7 day): 1.9 g | KIDNEY_L ([…], time 14 day): 1.1 g | KIDNEY_R ([…], time 14 day): 1.1 g | KIDNEY_TOTAL ([…], time 14 day): 2.2 g | KIDNEY_L ([…], time 28 day): 1.2 g | KIDNEY_R ([…], time 28 day): 1.2 g | KIDNEY_TOTAL ([…], time 28 day): 2.4 g | LIVER ([…], time 7 day): 8.9 g | LIVER ([…], time 14 day): 9.8 g | LIVER ([…], time 28 day): 11.2 g | A/G ([…], time 7 day): 1.2 | ALP ([…], time 7 day): 923 IU/L | ALT ([…], time 7 day): 41 IU/L | AST ([…], time 7 day): 79.7 IU/L | BUN ([…], time 7 day): 15 mg/dL | CRE ([…], time 7 day): 0.2 mg/dL | Ca ([…], time 7 day): 10.9 mg/dL | Cl ([…], time 7 day): 105.7 meq/L | DBIL ([…], time 7 day): 0.0033 mg/dL | GLC ([…], time 7 day): 176.3 mg/dL | IP ([…], time 7 day): 9.6 mg/dL | K ([…], time 7 day): 4.2 meq/L | LDH ([…], time 7 day): 268.3 IU/L | Na ([…], time 7 day): 141 meq/L | PL ([…], time 7 day): 140.7 mg/dL | RALB ([…], time 7 day): 3 g/dL | TBIL ([…], time 7 day): 0.0167 mg/dL | TC ([…], time 7 day): 70.7 mg/dL | TG ([…], time 7 day): 95.7 mg/dL | TP ([…], time 7 day): 5.6 g/dL | gamma-GTP ([…], time 7 day): 1 IU/L | A/G ([…], time 14 day): 1.2 | ALP ([…], time 14 day): 1172 IU/L | ALT ([…], time 14 day): 39 IU/L | AST ([…], time 14 day): 74.7 IU/L | BUN ([…], time 14 day): 19.7 mg/dL | CRE ([…], time 14 day): 0.2 mg/dL | Ca ([…], time 14 day): 10.9 mg/dL | Cl ([…], time 14 day): 106.3 meq/L | DBIL ([…], time 14 day): 0 mg/dL | GLC ([…], time 14 day): 174 mg/dL | IP ([…], time 14 day): 8.1 mg/dL | K ([…], time 14 day): 4.6 meq/L | LDH ([…], time 14 day): 212.7 IU/L | Na ([…], time 14 day): 141 meq/L | PL ([…], time 14 day): 143 mg/dL | RALB ([…], time 14 day): 3 g/dL | TBIL ([…], time 14 day): 0.02 mg/dL | TC ([…], time 14 day): 69.3 mg/dL | TG ([…], time 14 day): 104 mg/dL | TP ([…], time 14 day): 5.5 g/dL | gamma-GTP ([…], time 14 day): 1 IU/L | A/G ([…], time 28 day): 1 | ALP ([…], time 28 day): 1280 IU/L | ALT ([…], time 28 day): 35 IU/L | AST ([…], time 28 day): 81 IU/L | BUN ([…], time 28 day): 17 mg/dL | CRE ([…], time 28 day): 0.2 mg/dL | Ca ([…], time 28 day): 10.4 mg/dL | Cl ([…], time 28 day): 106 meq/L | DBIL ([…], time 28 day): 0 mg/dL | GLC ([…], time 28 day): 160 mg/dL | IP ([…], time 28 day): 8.2 mg/dL | K ([…], time 28 day): 4.2 meq/L | LDH ([…], time 28 day): 96 IU/L | Na ([…], time 28 day): 143 meq/L | PL ([…], time 28 day): 128 mg/dL | RALB ([…], time 28 day): 2.9 g/dL | TBIL ([…], time 28 day): 0.03 mg/dL | TC ([…], time 28 day): 71 mg/dL | TG ([…], time 28 day): 64 mg/dL | TP ([…], time 28 day): 5.7 g/dL | gamma-GTP ([…], time 28 day): 1 IU/L
